Results as given in patent publication US20210024649A1, “Methods and Compositions for Antibody and Antibody-loaded Dendritic Cell Mediated Therapy” (The Board of Trustees of the Leland Stanford Junior …, priority 2014, published 2021).

System: tumor-associated DC (TADC)
Experiment: TADC cultured with alloIgG-IC with or without stimuli
Format: cell-based, mouse
Conditions: stimulus added to TADC with alloIgG-IC
Description: BM mononuclear cells were negatively selected using a murine monocyte enrichment kit (Stem Cell Technologies, Vancouver Canada), and FSC^lo/SSC^lo/Gr1^hi/CD115^hi/MHCII^neg cells were sorted with a FACS Aria II (BD Biosciences). Monocytes were cultured for 4-5 days in the presence of 50 ng/ml GM-CSF (PeproTech) to generate DC. For TADC, tumors were digested in Hank's balanced salt solution (HBSS, Gibco) containing 5 mg/mL collagenase IV and 0.01 mg/mL DNase I (Sigma). Cells were applied on a Ficoll gradient and magnetically enriched using CD11b^+ selection kits (StemCells) and Gr1^neg/CD11c^+/MHCII^+ cells were sorted by FACS. In some experiments TADC were activated with 50 ng/mL TNFα (PeproTech) and 500 ng/mL CD40L (PeproTech) recombinant mouse proteins.
To resolve this apparent discrepancy, tumor-associated DC (TADC) (FIG. 7a) were obtained and cultured these cells with tumor lysates or alloIgG-IC. […] Since the expression pattern of Fcγ receptors on TADC was similar to that of BMDC, and several immune stimuli are known to induce MAPK activation in DC, the effect of such stimuli on the response of TADC to allogG-IC was tested.

Substance: polyinosinic:polycytidylic acid [poly I:C]
- activation of TADC and uptake of alloIgG-IC: enabled activation of TADC as well as uptake of alloIgG-IC
